Values after ≈ are worked out from the molar mass of the structure shown. “Also recorded” adds a separate entry of the source.
Experiments:
[1] = In vitro water solubility experiment; settings: for solubility / solubility at 30 min: 25 °C, water, thermodynamic from solid; for improvement of water solubility compared with carboplatin: compared with the marketed drug carboplatin
Experimental: In Vitro Water Solubility Experiment of Example
At room temperature of 25° C., the test sample that had been ground into a fine powder was weighed accurately, and shaken vigorously for 30 seconds every 5 minutes in a certain volume of distilled water; and the dissolution of each test sample was observed within 30 minutes. If no visible solute particles were visible, the sample was considered to be completely dissolved.

[2] = background, studies have shown; cited from earlier work
S180 sarcoma = assay: In vivo tumor inhibition experiment, transplanted tumor S180 in mice; design: species or system Kunming mice; settings: for Tumor inhibition rate % / Tumor weight (g) X ± SD: S180 sarcoma mice, dl, 4, killed on eighth day
Experimental: In Vivo Tumor Inhibition Experiment of Example
The inhibitory effects of example S47 and example S70 of the present disclosure on animal transplanted tumor S180 were tested.
Kunming mice, ♀, 22±1 g, were purchased from Shanghai Slac Laboratory Animal Co., Ltd. Certificate number: SCXK (Shanghai) 2013-0010-02. Feeding environment: SPF level. Example S47, example S70 and carboplatin, a positive control drug, were prepared with 5% glucose to the required concentration. Mice were subcutaneously inoculated with S180 sarcoma cells, and the drug administration was started on the next day of inoculation. The mice were killed on the eighth day, and the tumor was weighed and the tumor inhibition rate was calculated.
Tumor inhibition rate=(tumor weight in the control group−tumor weight in the treatment group)/tumor weight in the control group×100

## N=C(N)NCCC[C@@H]1NC(=O)[C@@H](CCCCNC(=O)CCOCCOCCOCCOCCNC(=O)CC[C@H](NC(=O)CCSCC2=CCC(=O)N2CC2CCC(C(=O)NN=C3CC(C(=O)O)(C(=O)O)C3)CC2)C(=O)NCCOCCOCCOCCOCCC(=O)NCCCC[C@H]2NC(=O)[C@@H](Cc3ccccc3)NC(=O)[C@H](CC(=O)O)NC(=O)CNC(=O)[C@H](CCCNC(=N)N)NC2=O)NC(=O)[C@@H](Cc2ccccc2)NC(=O)[C@H](CC(=O)O)NC(=O)CNC1=O (stereo partly drawn) [Example S97]
[1]
  solubility: 30 mg/mL (≈ 13.1 mM)

## N=C(N)NCCC[C@@H]1NC(=O)[C@@H](CCCCNC(=O)CCOCCOCCOCCOCCNC(=O)CC[C@H](NC(=O)CCSC2CC(=O)N(CC3CCC(C(=O)NN=C4CC(C(=O)O)(C(=O)O)C4)CC3)C2=O)C(=O)NCCOCCOCCOCCOCCC(=O)NCCCC[C@H]2NC(=O)[C@@H](Cc3ccccc3)NC(=O)[C@H](CC(=O)O)NC(=O)CNC(=O)[C@H](CCCNC(=N)N)NC2=O)NC(=O)[C@@H](Cc2ccccc2)NC(=O)[C@H](CC(=O)O)NC(=O)CNC1=O (stereo partly drawn) [Example S95]
[1]
  solubility: > 30 mg/mL

## [NH2][Pt]1([NH2])[O]C(=O)C2(CCC2)C(=O)[O]1 [carboplatin, reference compound]
[1]
  solubility at 30 min: 16.6 mg/mL
[2]
  water solubility: 17.0 mg/mL

## N=C(N)NCCC[C@@H]1NC(=O)[C@@H](CCCCNC(=O)CCOCCOCCOCCOCCNC(=O)CC[C@H](NC(=O)CCSC2CC(=O)N(CCCCCC(=O)NN=C3CC4(C3)C(=O)[O][Pt]([NH2])([NH2])[O]C4=O)C2=O)C(=O)NCCOCCOCCOCCOCCC(=O)NCCCC[C@H]2NC(=O)[C@@H](Cc3ccccc3)NC(=O)[C@H](CC(=O)O)NC(=O)CNC(=O)[C@H](CCCNC(=N)N)NC2=O)NC(=O)[C@@H](Cc2ccccc2)NC(=O)[C@H](CC(=O)O)NC(=O)CNC1=O (stereo partly drawn) [Example S72]
[1]
  solubility at 30 min: > 30 mg/mL
  improvement of water solubility compared with carboplatin: ~1 fold

## CC(=O)N[C@@H](CCCNC(=N)N)C(=O)NCC(=O)N[C@@H](CC(=O)O)C(=O)NCCSC1CC(=O)N(CCCCCC(=O)NN=C2CC3(C2)C(=O)[O][Pt]([NH2])([NH2])[O]C3=O)C1=O (stereo partly drawn) [Example S70]
S180 sarcoma; dose 80, Ip
  Tumor inhibition rate %: 52.3%
  Tumor weight (g) X ± SD: 0.92 ± 0.20 g
S180 sarcoma; dose 160, Ip
  Tumor inhibition rate %: 70.8%
  Tumor weight (g) X ± SD: 0.56 ± 0.17 g
S180 sarcoma; dose 240, Ip
  Tumor inhibition rate %: 84.6%
  Tumor weight (g) X ± SD: 0.30 ± 0.14 g
S180 sarcoma; compared with carboplatin at equimolar concentrations
  inhibitory effect on growth of S180 sarcoma of mice (in words): more obvious ability to inhibit the growth of transplanted tumor S180 than the clinical drug carboplatin; also recorded: significantly better than carboplatin

## N=C(N)NCCC[C@@H]1NC(=O)[C@@H](CCCCNC(=O)CCOCCOCCOCCOCCNC(=O)CC[C@H](NC(=O)CCSC2CC(=O)N(CCOCCOCCC(=O)NN=C3CC4(C3)C(=O)[O][Pt]([NH2])([NH2])[O]C4=O)C2=O)C(=O)NCCOCCOCCOCCOCCC(=O)NCCCC[C@H]2NC(=O)[C@@H](Cc3ccccc3)NC(=O)[C@H](CC(=O)O)NC(=O)CNC(=O)[C@H](CCCNC(=N)N)NC2=O)NC(=O)[C@@H](Cc2ccccc2)NC(=O)[C@H](CC(=O)O)NC(=O)CNC1=O (stereo partly drawn) [Example S80]
[1]
  solubility at 30 min: > 30 mg/mL
  improvement of water solubility compared with carboplatin: ~1 fold

From patent publication US20230339997A1, “CLASS OF PLATINUM COMPOUNDS FOR TREATING CANCER, AND METHOD FOR PREPARATION THEREOF” (SHANGHAI HAIJU BIOLOGICAL TECHNOLOGY CO., LTD., priority 2020, published 2023)
